Data: patent US20220033405A1, “PHARMACEUTICAL COMPOSITION FOR PREVENTING OR TREATING CANCER CONTAINING PLK1 INHIBITOR AS ACTIVE INGREDIENT” (NATIONAL CANCER CENTER, priority 2018, published 2022)

Assay: Toxicity test, histopathological analysis of organs
Assay type: in vivo, mouse
Details: 1, 5 and 10 mg/kg intraperitoneally 3 times weekly, 2 weeks
Procedure: Compound 4 (M21) was diluted in 300 μl of PBS and intraperitoneally injected 3 times weekly at 1 mg/kg, 5 mg/kg and 10 mg/kg per body weight of a mouse, respectively, and DMSO diluted in 300 μl of PBS was intraperitoneally injected at 3% in the control. After 2 weeks, the lungs, heart, liver, kidneys, spleen and skin were removed by sacrificing mice, and fixed in a formalin solution.

Question: With `Cn1c2nc(=O)[nH]c(=O)c-2nc2cc(C(F)(F)F)ccc21` [Compound 4, 10-methyl-7-(trifluoromethyl)-2H,3H,4H,10H-benzo[g]pteridine-2,4-dione] as the molecule, how does the “histopathological analysis of lungs, heart, liver, kidneys, spleen and skin” value read?
Answer: The value was “No change by separate acute toxicity was observed”.
